{
  "source": "patent US10208007B2",
  "about": "“Use of strigolactones and strigolactone analogs for treating proliferative conditions” (The State of Israel, Ministry of Agriculture & Rural …, priority 2011, dated 2019)",
  "key": {"[1]": {"system": "MDA-MB-231", "assay": "XTT viability after timed exposure and strigolactone removal", "type": "cell-based, human", "conditions": "5 and 10 ppm, XTT at 24 hours", "method": "As further detailed herein below in the Experimental section, strigolactones and strigolactone analogs inhibit growth through a G2-phase arrest and cause apoptosis at higher concentrations wherein the GR-24 treatment causes an increase in the percentage of MCF-7 and MDA-MB-231 cells in G2-phase. Cells were treated with strigolactone analogs to determine whether or not they alter cell cycle progression in the same way. Dose dependant increases in the percentage of cells in G2 phase were observed. […] After a total of 24 hours, an XTT assay was carried out."}, "[2]": {"system": "A549", "assay": "XTT viability assay", "type": "cell-based, human", "conditions": "A549, 3 days", "method": "(§1) Viability was assayed after 3 days (XTT, ATCC). IC50 concentrations are indicated (Table 3 above)."}, "[3]": {"system": "MDA-MB-436", "assay": "XTT viability assay", "type": "cell-based, human", "conditions": "MDA-MB-436, 3 days", "method": "as §1"}, "[4]": {"system": "CYCB1", "assay": "Gene transcription level by quantitative PCR: CYCB1", "type": "in vivo, Arabidopsis thaliana", "conditions": "for CYCB1 transcription level versus controls: 3 μM", "method": "Seeds of homozygous lines of Arabidopsis thaliana wild type (WT; Columbia; Col-0) and max2-1 mutant (http://abrc.osu.edu/) were surface-sterilized and germinated on 1/2 Murashige and Skoog (MS) plates supplemented with 1% sucrose and solidified with 0.7% agar. Plates were incubated vertically in the dark at 4° C. for two days to synchronize germination. Three days after germination, seedlings were gently transferred using forceps to 1/2 MS plates containing various concentrations of GR-24 as a mixture of four diastereomers: (±)-GR-24 and (±)-2'-epi-GR-24. The root tip of the transferred seedling was marked on the plates. The plates remained unsealed to prevent accumulation of gases (e.g., ethylene), and were positioned in an upright 45° position, and incubated at 22° C. with a light intensity of […] photons m-2 s-1 provided by white fluorescent tubes and under a photoperiod of 16 hours exposure to light/8 hours in the dark for 6-12 days. GR-24 treatments were conducted at concentrations ranging from 2.7×10^-6 to 13.5×10^-6 M. […] GR-24, ST-357 and ST-362 were initially dissolved in acetone to give a 4.5 mM, 10 μM and 10 μM solutions, respectively, which were then further diluted with double-distilled sterile water (DDW). […] In each of the experiments, non-treated roots were compared to the respective acetone control. Where no difference was observed between the various controls, non-treated roots are shown. Where differences were recorded between non-treated and acetone controls, the comparison was made between GR-24, ST-357 and ST-362-treated and acetone-treated roots. RNA was extracted from seedlings grown and treated as described in Example 1. Quantitative PCR was performed by amplifying fragments of genes of interest (Tables 6 & 7). Arabidopsis 15S ribosomal RNA (GenBank accession no. AT1G04270.1) served as the reference gene for the amount of RNA, and was amplified using specific primers (forward) [NT] and (reverse) [NT]. The experiment was performed in 5-6 biological replicates; each replicate included 8 plants, on which 3 technical repeats were performed. Means and standard error were determined from all biological replicates. Primers were designed using PrimerQuest software (Integrated DNA Technologies). RNA was extracted using Trizol (Invitrogen, Carlsbad, Calif., USA) using the manufacturer's protocol. 1 μg RNA was reverse-transcribed in a total volume of 20 μl using the Superscript First strand cDNA synthesis kit (Invitrogen). PCR was performed in triplicate using an ABI-Prism 7900 instrument (Applied Biosystems, Foster City, Calif.) and SYBR Green I detection (Applied Biosystems) according to the manufacturer's protocol. The expression of each target gene was normalized to the expression of GAPDH RNA and is presented as the ratio of the target gene to GAPDH RNA, expressed as 2-ΔCt, where Ct is the threshold cycle and ΔCt=[NT] GAPDH."}, "[5]": {"system": "MDA-MB-231 breast cancer cells", "assay": "Xenograft tumor model", "type": "in vivo", "conditions": "SCID mice, 10 mg/kg iv twice a week, 4 treatments; for Mean tumor volume: control 24.2±5.57; for Tumor growth: p<0.0015", "method": "To establish subcutaneous tumors, actively growing MDA-MB-231 breast cancer cells were harvested and 1.5×10^6 cells in 100 μl PBS were injected into the mammary fat pads of mice (n=15). The lesions were allowed to grow until their average sizes were approximately 4.5 mm×4.5 mm (about 3 weeks). The mice were then randomized into 3 groups for various treatments including vehicle control, and two strigolactone analogs: ST-362 and ST-357. Treatment started at day 1, 10 ppm (10 mg/Kg) twice a week for a total of 4 treatments. ST-362 and ST-357 were administered intravenously (iv). Body weight and tumor measurements were recorded twice weekly. Tumor cross-sectional area was calculated by multiplying the length×width and tumor volume was calculated by cubing the mean value of length and width. Results are summarized and plotted.\nData are expressed as mean±SD. Statistical significance was assessed by one-way ANOVA and Games-Howell Post Hoc test. A value of P<0.05 was considered significant and represents significance compared with untreated controls, unless indicated otherwise. Data was analyzed by Graphpad PRISMS and SPSS."}, "[6]": {"system": "HCT116 cells", "assay": "XTT viability after timed exposure and strigolactone removal", "conditions": "Homo sapiens", "description": "(§2) At each time point the strigolactone analog was removed and the media was replaced with fresh growth media without strigolactone analog. […] In addition, viability of MDA-MB-231 cells was assessed after 24 hours by using an XTT assay (FIG. 9B). […] After 2, 4 or 24 hours the media was removed, cells were washed and media was replaced with growth media minus strigolactone analog."}, "[7]": {"system": "U20S cells", "assay": "XTT viability after timed exposure and strigolactone removal", "conditions": "Homo sapiens", "description": "as §2"}},
  "note": "Entries after “also recorded” stand apart in the source; their conditions may differ.",
  "data": [
    {"smiles": "CC1=CC(O/C=C2/C(=O)c3c(c4cc(-c5scc6c5OCCO6)ccc4n3C)C2C)OC1=O", "note": "(stereo not shown) [ST-362, (2E)-2-[(2,5-dihydro-4-methyl-5-oxofuran-2-yloxy)methylene]-1,2-dihydro-7-(2,3-dihydrothieno[3,4-b][1,4]dioxin-7-yl)-1,4-dimethyl-cyclopenta[b]indole-3-(4H)-one]", "values": [
      {"measurement": "Cell viability", "setting": "[1]; 2 hours exposure", "result": "No significant changes; also recorded: No changes in cell viability"},
      {"measurement": "Cell viability", "setting": "[1]; 4 hours exposure, p<0.01", "result": "significant decrease in viability"},
      {"measurement": "IC50 at 72 h", "setting": "[2]", "result": 6.7, "unit": "ppm"},
      {"measurement": "IC50 at 72 h", "setting": "[3]", "result": 5.9, "unit": "ppm"},
      {"measurement": "CYCB1 transcription level versus controls", "setting": "[4]; WT seedlings", "result": "0.008 ± 0.007"},
      {"measurement": "Mean tumor volume", "setting": "[5]", "result": "17.7±4.28", "unit": "mm^3"},
      {"measurement": "Tumor growth", "setting": "[5]", "result": "effective in inhibiting tumor growth"}
    ]},
    {"smiles": "CC1=C[C@H](O/C=C2/C(=O)O[C@@H]3c4ccccc4C[C@H]23)OC1=O", "note": "(relative stereo) [GR-24, (3aR*,8bS*,E)-3-(((R*)-4-methyl-5-oxo-2,5-dihydrofuran-2-yloxy)methylene)-3,3a,4,8b-tetrahydro-2H-indeno[1,2-b]furan-2-one]", "values": [
      {"measurement": "CYCB1 transcription level versus controls", "setting": "[4]; WT seedlings", "result": "0.008 ± 0.003"},
      {"measurement": "CYCB1 transcription level versus controls", "setting": "[4]; max2-1 seedlings", "result": "0.211 ± 0.078"},
      {"measurement": "CYCB1 transcription relative to controls", "setting": "[4]; root tips, 2.7 μM", "result": "0.97±0.47"},
      {"measurement": "CYCB1 transcription in comparison to controls", "setting": "[4]; root tips, 13.5 μM", "result": "0.16±0.00"}
    ]},
    {"smiles": "CC1=CC(O/C=C2\\Cc3c(n(C)c4cc(-c5cccs5)ccc34)C2=O)OC1=O", "note": "(racemic) [MEB-55, (±) 2E-4-methyl-2-(4-methyl-5-oxo-2,5-dihydrofuran-2-yloxymethylene)-6-thiophen-2-yl-1,4-dihydro-2H-cyclopenta[b]indol-3-one]", "values": [
      {"measurement": "Cell viability", "setting": "[1]; 2 hours exposure", "result": "No significant changes; also recorded: No changes in cell viability"},
      {"measurement": "Cell viability", "setting": "[1]; 4 hours exposure, p<0.01", "result": "significant decrease in viability"},
      {"measurement": "IC50 at 72 h", "setting": "[2]", "result": 6.9, "unit": "ppm"},
      {"measurement": "IC50 at 72 h", "setting": "[3]", "result": 8.3, "unit": "ppm"},
      {"measurement": "viability at 10 ppm", "setting": "[6]; HCT-116, 1 h", "result": 75, "unit": "%"},
      {"measurement": "viability at 20 ppm", "setting": "[6]; HCT-116, 1 h", "result": 68, "unit": "%"},
      {"measurement": "viability at 10 ppm", "setting": "[6]; HCT-116, 4 h", "result": 18, "unit": "%"},
      {"measurement": "viability at 20 ppm", "setting": "[6]; HCT-116, 4 h", "result": 0, "unit": "%"},
      {"measurement": "viability at 10 ppm", "setting": "[7]; 1 h", "result": 52, "unit": "%"},
      {"measurement": "viability at 20 ppm", "setting": "[7]; 1 h", "result": 40, "unit": "%"},
      {"measurement": "viability at 10 ppm", "setting": "[7]; 4 h", "result": 0, "unit": "%"},
      {"measurement": "viability at 20 ppm", "setting": "[7]; 4 h", "result": 0, "unit": "%"}
    ]},
    {"smiles": "CC1=CC(O/C=C2/C(=O)c3c(c4cc(-c5cccs5)ccc4n3C)C2C)OC1=O", "note": "(stereo not shown) [ST-357, (2E)-1,4-dimethyl-2-((4-methyl-5-oxo-2,5-dihydrofuran-2-yloxy)methylene)-7-(thiophen-2-yl)-1,2-dihydrocyclopenta[b]indol-3(4H)-one]", "values": [
      {"measurement": "CYCB1 transcription level versus controls", "setting": "[4]; WT seedlings", "result": "0.460 ± 0.362"},
      {"measurement": "viability at 10 ppm", "setting": "[6]; HCT-116, 1 h", "result": 75, "unit": "%"},
      {"measurement": "viability at 20 ppm", "setting": "[6]; HCT-116, 1 h", "result": 63, "unit": "%"},
      {"measurement": "viability at 20 ppm", "setting": "[6]; HCT-116, 4 h", "result": 50, "unit": "%"},
      {"measurement": "viability at 20 ppm", "setting": "[6]; HCT-116, 8 h", "result": 10, "unit": "%"},
      {"measurement": "Mean tumor volume", "setting": "[5]", "result": "15.9±2.61", "unit": "mm^3"},
      {"measurement": "Tumor growth", "setting": "[5]", "result": "effective in inhibiting tumor growth"},
      {"measurement": "viability at 10 ppm", "setting": "[7]; 1 h", "result": 80, "unit": "%"},
      {"measurement": "viability at 20 ppm", "setting": "[7]; 1 h", "result": 77, "unit": "%"},
      {"measurement": "viability at 10 ppm", "setting": "[7]; 4 h", "result": 62, "unit": "%"},
      {"measurement": "viability at 20 ppm", "setting": "[7]; 4 h", "result": 10, "unit": "%"}
    ]}
  ]
}
